For experiment [1], the target named is T1, human CYP11B1 (Homo sapiens, UniProt P15538).
T1 construct: expressed in transfected cells
T1 sequence (P15538 25-503): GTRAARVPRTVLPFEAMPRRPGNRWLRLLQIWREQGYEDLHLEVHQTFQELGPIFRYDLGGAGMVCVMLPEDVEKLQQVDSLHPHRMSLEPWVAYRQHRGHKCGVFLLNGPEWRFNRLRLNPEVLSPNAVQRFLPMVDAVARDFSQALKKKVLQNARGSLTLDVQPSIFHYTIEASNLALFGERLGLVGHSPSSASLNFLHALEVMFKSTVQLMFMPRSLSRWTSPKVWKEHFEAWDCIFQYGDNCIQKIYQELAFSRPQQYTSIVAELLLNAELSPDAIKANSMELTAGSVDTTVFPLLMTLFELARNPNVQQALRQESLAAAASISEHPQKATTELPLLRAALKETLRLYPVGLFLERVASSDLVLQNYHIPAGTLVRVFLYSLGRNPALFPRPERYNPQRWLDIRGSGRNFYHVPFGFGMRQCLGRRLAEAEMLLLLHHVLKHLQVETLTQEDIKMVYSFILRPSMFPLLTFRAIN
Briefly: Inhibition of hCYP11B1 in transfected V79 cells. It is filed as cell-based. To be noted: hamster V79 cells expressing human CYP11B1; substrate 11-deoxycortisol 200 nM. The method, boiled down:
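Reactions started with 200 nM 11-deoxycortisol, ran for 30 min and were stopped with ethyl acetate, after a 2 h compound preincubation. The host was stably transfected V79 hamster cells carrying human CYP11B1 plus rat P450 reductase. Percent inhibition, from LC-MS/MS or HPLC (260 nm) quantitation of substrate and product, gave the IC50.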

Experiment [2] deals with T2, human CYP11B2 (Homo sapiens, UniProt P19099).
T2 construct: expressed in transfected cells
T2 sequence (P19099 25-503): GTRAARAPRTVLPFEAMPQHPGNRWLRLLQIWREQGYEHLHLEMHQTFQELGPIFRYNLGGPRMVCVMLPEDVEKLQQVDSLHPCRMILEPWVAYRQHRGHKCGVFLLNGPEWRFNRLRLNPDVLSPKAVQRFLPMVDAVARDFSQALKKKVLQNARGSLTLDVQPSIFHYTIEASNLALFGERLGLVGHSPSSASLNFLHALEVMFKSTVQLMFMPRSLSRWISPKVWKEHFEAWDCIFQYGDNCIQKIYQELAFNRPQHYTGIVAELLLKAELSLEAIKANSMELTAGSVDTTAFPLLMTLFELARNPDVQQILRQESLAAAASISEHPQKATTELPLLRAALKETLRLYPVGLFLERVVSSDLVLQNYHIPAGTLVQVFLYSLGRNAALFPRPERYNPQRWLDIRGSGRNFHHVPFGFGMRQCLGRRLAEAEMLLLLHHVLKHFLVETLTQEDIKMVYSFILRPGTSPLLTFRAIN
Briefly: Inhibition of hCYP11B2 in transfected V79 cells. The note with it: hamster V79 cells expressing human CYP11B2; substrate 11-deoxycorticosterone 200 nM. It is filed as cell-based. An outline of the steps:
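The substrate (200 nM, 30 min) was added after a 2 hour compound pre-incubation in lentivirus-transduced V79 cells stably expressing human CYP11B2 plus rat NADPH-P450 reductase.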

pIC50: −log10 of the molar value.

A word on the pIC50: it is the negative decadic logarithm of the IC50, by convention in mol/L.

For `N#Cc1ccc(-c2cncc3c2OCCN3C(=O)Cc2ccc(Cl)cc2)cc1` [O38, 4-(4-(2-(4-Chlorophenyl)acetyl)-3,4-dihydro-2H-pyrido[4,3-b][1,4]oxazin-8-yl)benzonitrile], the pIC50 in experiment [1] was 6.25; in experiment [2], 7.77.
On to `N#Cc1ccc(-c2cncc3c2OCCN3C(=O)Cc2cccc(Cl)c2)cc1` [O39, 4-(4-(2-(3-Chlorophenyl)acetyl)-3,4-dihydro-2H-pyrido[4,3-b][1,4]oxazin-8-yl)benzonitrile], for which the pIC50 in experiment [1] is 6.85; in experiment [2], 8.59.
For `COc1ccc(CC(=O)N2CCOc3c(-c4ccc(C#N)cc4)cncc32)cc1` [O40, 4-(4-(2-(4-Methoxyphenyl)acetyl)-3,4-dihydro-2H-pyrido[4,3-b][1,4]oxazin-8-yl)benzonitrile], in that order: 7.14 and 9.10.
On the same counts, the results for `COc1cccc(CC(=O)N2CCOc3c(-c4ccc(C#N)cc4)cncc32)c1` [O41, 4-(4-(2-(3-Methoxyphenyl)acetyl)-3,4-dihydro-2H-pyrido[4,3-b][1,4]oxazin-8-yl)benzonitrile] are 7.28 and 8.74.
Take `Cc1ccc(CC(=O)N2CCOc3c(-c4ccc(C#N)cc4)cncc32)cc1` [O42, 4-(4-(2-(p-Tolyl)acetyl)-3,4-dihydro-2H-pyrido[4,3-b][1,4]oxazin-8-yl)benzonitrile]: the pIC50 in experiment [1] is 7.17; in experiment [2], 9.22.
For `Cc1cccc(CC(=O)N2CCOc3c(-c4ccc(C#N)cc4)cncc32)c1` [O43, 4-(4-(2-(m-Tolyl)acetyl)-3,4-dihydro-2H-pyrido[4,3-b][1,4]oxazin-8-yl)benzonitrile], in that order: 6.90 and 8.33.
On the same counts, the results for `Cc1ccccc1CC(=O)N1CCOc2c(-c3ccc(C#N)cc3)cncc21` [O44, 4-(4-(2-(o-Tolyl)acetyl)-3,4-dihydro-2H-pyrido[4,3-b][1,4]oxazin-8-yl)benzonitrile] are 7.08 and 8.32.
For `N#Cc1ccc(-c2cncc3c2OCCN3C(=O)Cc2ccc(C(F)(F)F)cc2)cc1` [O45, 4-(4-(2-(4-(Trifluoromethyl)phenyl)acetyl)-3,4-dihydro-2H-pyrido[4,3-b][1,4]oxazin-8-yl)benzonitrile], the pIC50 in experiment [1] was 6.21; in experiment [2], 7.82.
`N#Cc1ccc(-c2cncc3c2OCCN3C(=O)Cc2cccc(C(F)(F)F)c2)cc1` [O46, 4-(4-(2-(3-(Trifluoromethyl)phenyl)acetyl)-3,4-dihydro-2H-pyrido[4,3-b][1,4]oxazin-8-yl)benzonitrile]: the pIC50 was 6.62 in experiment [1] and 8.24 in experiment [2].
Turning to `N#Cc1ccc(-c2cncc3c2OCCN3C(=O)CCc2ccc(F)cc2)cc1` [O47, 4-(4-(3-(4-Fluorophenyl)propanoyl)-3,4-dihydro-2H-pyrido[4,3-b][1,4]oxazin-8-yl)benzonitrile], the figures for the pIC50 in experiment [1] and in experiment [2] were 7.28 and 8.42, respectively.
Take `N#Cc1ccc(-c2cncc3c2OCCN3C(=O)CCc2cccc(F)c2)cc1` [O48, 4-(4-(3-(3-Fluorophenyl)propanoyl)-3,4-dihydro-2H-pyrido[4,3-b][1,4]oxazin-8-yl)benzonitrile]: the negative-log IC50 (pIC50) in experiment [1] was 6.93; in experiment [2] it was 8.68.
Turning to `N#Cc1ccc(-c2cncc3c2OCCN3C(=O)CCc2ccc(Cl)cc2)cc1` [O49, 4-(4-(3-(4-Chlorophenyl)propanoyl)-3,4-dihydro-2H-pyrido[4,3-b][1,4]oxazin-8-yl)benzonitrile], the figures for the negative logarithm of the IC50 (pIC50) in experiment [1] and in experiment [2] were 7.27 and 8.80, respectively.
With `N#Cc1ccc(-c2cncc3c2OCCN3C(=O)CCc2cccc(Cl)c2)cc1` [O50, 4-(4-(3-(3-Chlorophenyl)propanoyl)-3,4-dihydro-2H-pyrido[4,3-b][1,4]oxazin-8-yl) benzonitrile], the results for the negative-log IC50 (pIC50) in experiment [1] and in experiment [2] were 7.38 and 8.30, respectively.

The values above are taken from US20260092074A1, “Annelated Pyridines as Steroidogenesis Inhibitors, Preparation Method and Use Thereof” (Guangzhou Vinnocent Pharmaceutical Limited, priority 2022, published 2026).
